Paper PMC8776092, “A Toxoplasma gondii Oxopurine Transporter Binds Nucleobases and Nucleosides Using Different Binding Modes” (International Journal of Molecular Sciences, 2022)
Where “and” joins values, the source holds several entries; their conditions need not be identical. Equal values may be shown once. Read-outs that look alike come from different tables or passages of the source.

Columns and labels:
T. gondii = conditions: cited from earlier work
Tg244440 [1] = target: T1, Tg244440 (Toxoplasma gondii, UniProt A0A125YNC9); experiment: [3H]-guanine uptake and its inhibition in T. brucei TbNB-KO procyclics expressing Tg244440 (clone F5); type: cell-based; conditions: for Ki: competition with 50 nM [3H]-guanine, Cheng-Prusoff; for Ki / Inhibition of [3H]-guanine transport by pyrimidines: 30 s; for ΔG^0 (Gibbs free energy of interaction): calculated from Km or Ki, ΔG0 = −RTln(Ki); for Summation of the Gibbs free energy of the proposed interactions (binding model), Σ: substrate binding model, Figure 5, for adenosine base group only; for Rate of [3H]-guanine uptake, +Tg244440: clone F5; for Sum of δ(ΔG^0) for the 7-deaza and 9-deaza analogues: analogues of the named nucleobase; for Inhibition of [3H]-guanine transport by pyrimidines: inhibitor at 1 mM, 0.1 μM [3H]-guanine
T1 sequence (A0A125YNC9 1-462): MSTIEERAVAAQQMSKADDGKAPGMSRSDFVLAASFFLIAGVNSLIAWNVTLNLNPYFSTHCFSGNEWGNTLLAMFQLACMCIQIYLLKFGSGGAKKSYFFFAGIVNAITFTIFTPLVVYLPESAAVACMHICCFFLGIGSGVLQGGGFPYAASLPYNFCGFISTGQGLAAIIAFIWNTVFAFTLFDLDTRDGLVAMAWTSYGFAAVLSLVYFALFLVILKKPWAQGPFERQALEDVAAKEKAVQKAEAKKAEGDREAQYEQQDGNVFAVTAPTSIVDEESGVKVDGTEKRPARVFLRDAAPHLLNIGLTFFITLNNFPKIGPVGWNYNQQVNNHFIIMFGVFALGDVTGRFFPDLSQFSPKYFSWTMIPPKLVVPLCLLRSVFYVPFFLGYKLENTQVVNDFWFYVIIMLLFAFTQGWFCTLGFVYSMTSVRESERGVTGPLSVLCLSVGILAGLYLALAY
Procedure: (§1) Briefly, PCF cells of T. brucei in logarithmic growth were harvested by centrifugation at 1000× g for 10 min, washed twice in AB and then resuspended in fresh buffer at a final density of 10^8 cells/mL. […] Immediately after finishing the assay, all tubes were flash-frozen in liquid nitrogen and the cell pellets were cut into scintillation vials and lysed with a solution of 2% SDS for one hour under agitation. Then, 3 mL of scintillation fluid (Scintilogic U, Lablogic) was added to each vial and left agitating overnight on a rocking platform. The next morning, the vials were vigorously shaken to ensure optimal mixing and the scintillation was measured in a 300SL (Hidex) scintillation counter. All assays were carried out in triplicate. All experimental data such as Km, Ki and Vmax values are the average and SEM of at least three separate experiments, each in triplicate, unless otherwise indicated.
(§2) Background scintillation was measured in vials containing no cells or radiolabeled substrate, and counts associated with extracellular radiolabel were calculated from samples where cells were briefly incubated with the same concentration of radiolabel, but in the presence of saturating concentrations of non-radiolabeled substrate before centrifugation through oil. The average of the three control replicates was subtracted from each data point.

TgAT2 = target: TgAT2; design: method as in PMID 12865082; conditions: cited from earlier work; for Km: tachyzoites
Tg244440 [2] = type: cell-based, Toxoplasma gondii; conditions: 0.1 μM [3H]-permeant, 60 s, clones B11, F5 and G10
Procedure: (§3) Figure 2 Uptake of radiolabelled nucleosides and nucleobases by in three clonal lines of T. brucei NB-KO procyclics, expressing Tg244440 in pHD1336. EV, empty vector control. Radiolabel concentration was 0.1 µM and uptake was measured over 60 s, in triplicate (average and SEM shown). Statistically significant differences between the control and the Tg244440-expressing cells were established using Student’s unpaired t-test. *, p < 0.05, **, p < 0.01, ***, p < 0.001.
as §1

human adenosine kinase = test system: human adenosine kinase; design: method as in PMID 23592612, PMID 6363411, PMID 10722669, PMID 8982282; conditions: cited from earlier work
Tg244440 [3] = target: T1, Tg244440; conditions: Xenopus laevis oocytes, 10 µM [3H]-adenosine; cited from earlier work
[4] = test system: human adenosine deaminase; design: method as in PMID 23592612, PMID 6363411, PMID 10722669, PMID 8982282; conditions: cited from earlier work
TgAT1 = conditions: cited from earlier work
hENT1 = test system: hENT1; design: method as in PMID 23592612, PMID 6363411, PMID 10722669, PMID 8982282; conditions: cited from earlier work
Tg244440 [5] = target: T1, Tg244440; type: cell-based; conditions: 0.1 μM [3H]-permeant, 60 s, clones B11, F5 and G10
Procedure: as §3, §1

[6] = test system: TbNBT-KO cells transfected with the empty vector (EV); experiment: [3H]-guanine and [3H]-hypoxanthine uptake in TbNBT-KO cells transfected with the empty vector (EV); type: cell-based, Trypanosoma brucei; conditions: for Rate of [3H]-guanine uptake, EV / Rate of [3H]-hypoxanthine uptake, EV: empty vector cells
Procedure: as §1, §2

Tg244440 [7] = target: T1, Tg244440; conditions: clone F5
Procedure: as §1, §2

TgNBT1 = conditions: tachyzoites; cited from earlier work
inosine transporter = conditions: tachyzoites; read-out: apparent Km; cited from earlier work
O=c1[nH]cnc2nc[nH]c12 = experiment: cells, lysate or membranes; conditions: other: 0.10 µM [3H]-hypoxanthine, 30 s, Michaelis-Menten; pH 7.3
[8] = substrate: Nc1nc2nc[nH]c2c(=O)[nH]1; experiment: [3H]-guanine uptake and its inhibition in T. brucei TbNB-KO procyclics expressing Tg244440 (clone F5); type: cell-based, Toxoplasma gondii; conditions: other: 0.05 µM [3H]-guanine, 30 s, Michaelis-Menten; pH 7.3
[9] = [Permeant] 25 μM (unlabelled guanine to saturate the transporter)
[10] = [Permeant] 0.1 μM, over 60 s, listed as hypoxanthine
[11] = [Permeant] 1000 μM (unlabelled hypoxanthine to saturate the transporter)

OC[C@@H]1CC[C@H](n2cnc3c(O)ncnc32)O1 [2′,3′-dideoxyinosine]
Activity against T. gondii (in words) (T. gondii): active in vitro and in vivo
Ki (Tg244440 [1]; Ki): 698 ± 52 µM
ΔG^0 (Gibbs free energy of interaction) (Tg244440 [1]): -4.3 kcal/mol
δ(ΔG^0) relative to Inosine (Tg244440 [1]; relative to Inosine): 3.06 kcal/mol

Nc1ncnc2c1ncn2[C@@H]1O[C@H](CO)[C@@H](O)[C@@H]1O [Adenine arabinoside (Ara-A), Adenine arabinoside]
Activity against T. gondii (in words) (T. gondii): moderately active
Affinity for Tg244440 (in words) (Tg244440 [1]): low affinity
ΔG^0 (Gibbs free energy of interaction) (Tg244440 [1]): -4.78 kcal/mol
Ki (Tg244440 [1]; read-out: Ki): 310 ± 14 µM
δ(ΔG^0) relative to Adenosine (Tg244440 [1]): 0.896 kcal/mol
Ki (TgAT2): 2.9 µM

Nc1ncnc2c1ncn2[C@@H]1O[C@H](CO)[C@@H](O)[C@H]1O [Adenosine]
Uptake of radiolabelled permeant in Tg244440 clones compared to empty vector (Tg244440 [2]): No difference
Affinity for Tg244440 (in words) (Tg244440 [1]): Low affinity
Ki (Tg244440 [1]; Ki): 68.2 ± 2.86 µM
ΔG^0 (Gibbs free energy of interaction) (Tg244440 [1]): -5.69 kcal/mol
Fold higher affinity than adenine (Tg244440 [1]; ratio of Ki values): 6 fold
Fold lower affinity than inosine and guanosine (Tg244440 [1]; ratio of Ki values): about 20 fold
δ(ΔG^0) relative to Adenine (Tg244440 [1]): -1.08 kcal/mol
δ(ΔG^0) relative to Adenine (Tg244440 [1]; listed as adenosine): 1.08 kcal/mol
Summation of the Gibbs free energy of the proposed interactions (binding model), Σ (Tg244440 [1]): -4.97 kcal/mol
Km (human adenosine kinase): 0.2 to 0.4 µM
Km (Tg244440 [3]): 114 ± 37 µM
Km (TgAT2): 0.49 µM
Km [4]: 49 µM
Km (TgAT1; adenosine transport): 120 µM
Km (TgAT1; for its substrates): > 100 µM
Km (hENT1): 40 to 60 µM

Nc1nc2nc[nH]c2c(=O)[nH]1 [Guanine]
Uptake of radiolabelled permeant in Tg244440 clones compared to empty vector (Tg244440 [5]): highly significant increases
Rate of [3H]-guanine uptake, EV ([6]; [Permeant] 0.05 μM, over 60 s): 0.00059 pmol(10^7 Cells)^−1s^−1
Rate of [3H]-guanine uptake, EV [6, 9]: 0.0015 ± 0.0002 pmol(10^7 Cells)^−1s^−1
Rate of [3H]-guanine uptake, +Tg244440 (Tg244440 [1]; [Permeant] 0.05 μM, over 60 s): 0.037 ± 0.003 pmol(10^7 Cells)^−1s^−1
Rate of [3H]-guanine uptake, +Tg244440 (Tg244440 [1]; [Permeant] 0.05 μM, over 60 s, listed as guanine): 0.037 pmol(10^7 Cells)^−1s^−1
Rate of [3H]-guanine uptake, +Tg244440 (Tg244440 [1]; [9]): 0.00092 ± 0.00067 pmol(10^7 Cells)^−1s^−1
Sum of δ(ΔG^0) for the 7-deaza and 9-deaza analogues (Tg244440 [1]): 14.2 kJ/mol
ΔG^0 (Gibbs free energy of interaction) (Tg244440 [1]): -8.05 kcal/mol

O=c1[nH]cnc2nc[nH]c12 [Hypoxanthine]
Uptake of radiolabelled permeant in Tg244440 clones compared to empty vector (Tg244440 [5]): highly significant increases
Rate of [3H]-hypoxanthine uptake, +Tg244440 (Tg244440 [7]; [Permeant] 0.1 μM, over 60 s): 0.048 ± 0.0004 pmol(10^7 Cells)^−1s^−1
Rate of [3H]-hypoxanthine uptake, +Tg244440 (Tg244440 [7]; [10]): 0.048 pmol(10^7 Cells)^−1s^−1
Rate of [3H]-hypoxanthine uptake, +Tg244440 (Tg244440 [7]; [11]): −0.01 ± 0.01 pmol(10^7 Cells)^−1s^−1
Slope of uptake in EV control lower than in +Tg244440 clone F5 ([6]; 0.10 µM [3H]-hypoxanthine over 60 s): 86.2%
Rate of [3H]-hypoxanthine uptake, EV ([6]; [Permeant] 0.1 μM, over 60 s): 0.0066 ± 0.0007 pmol(10^7 Cells)^−1s^−1
Rate of [3H]-hypoxanthine uptake, EV [6, 10]: 0.0066 pmol(10^7 Cells)^−1s^−1
Rate of [3H]-hypoxanthine uptake, EV [6, 11]: 0.00055 pmol(10^7 Cells)^−1s^−1
Ki (Tg244440 [1]; Ki): 2.26 ± 0.36 µM
Sum of δ(ΔG^0) for the 7-deaza and 9-deaza analogues (Tg244440 [1]): 15.8 kJ/mol
ΔG^0 (Gibbs free energy of interaction) (Tg244440 [1]): -7.7 kcal/mol
δ(ΔG^0) relative to Guanine (Tg244440 [1]): 0.359 kcal/mol
Summation of the Gibbs free energy of the proposed interactions (binding model), Σ (Tg244440 [1]): -8.01 kcal/mol
Km (TgNBT1): 0.91 µM

O=c1[nH]cnc2c1ncn2[C@@H]1O[C@H](CO)[C@@H](O)[C@H]1O [Inosine]
Ki (Tg244440 [1]; Ki): 4.05 ± 1.37 µM
ΔG^0 (Gibbs free energy of interaction) (Tg244440 [1]): -7.36 kcal/mol
δ(ΔG^0) relative to Hypoxanthine (Tg244440 [1]): 0.335 kcal/mol
Km (inosine transporter): 81 µM
Km (TgAT2): 0.77 µM
Km (TgAT1; for its substrates): > 100 µM

O=[N+]([O-])c1ccc(CSc2ncnc3c2ncn3[C@@H]2O[C@H](CO)[C@@H](O)[C@H]2O)cc1 [S-(4-nitrobenzyl)-6-thioinosine (NBMPR), S-(4-nitrobenzyl)-6-thioinosine]
Ki (Tg244440 [1]; Ki): 78 ± 6 µM
ΔG^0 (Gibbs free energy of interaction) (Tg244440 [1]): -5.59 kcal/mol
δ(ΔG^0) relative to Adenosine (Tg244440 [1]): 0.0837 kcal/mol

O=c1[nH]c(=O)c2nc[nH]c2[nH]1 [Xanthine]
Ki (Tg244440 [1]; Ki): 42.4 ± 4.2 µM
ΔG^0 (Gibbs free energy of interaction) (Tg244440 [1]): -5.95 kcal/mol
δ(ΔG^0) relative to Guanine (Tg244440 [1]): 2.08 kcal/mol
δ(ΔG^0) relative to Hypoxanthine (Tg244440 [1]): 1.74 kcal/mol

Cc1cn([C@H]2C[C@H](O)[C@@H](CO)O2)c(=O)[nH]c1=O [thymidine]
Uptake of radiolabelled permeant in Tg244440 clones compared to empty vector (Tg244440 [5]): only slightly increased

Cc1c[nH]c(=O)[nH]c1=O [thymine]
Inhibition of [3H]-guanine transport by pyrimidines (Tg244440 [1]): significant inhibition

O=c1ccn([C@@H]2O[C@H](CO)[C@@H](O)[C@H]2O)c(=O)[nH]1 [uridine]
Inhibition of [3H]-guanine transport by pyrimidines (Tg244440 [1]): significant inhibition

Tg244440 (Toxoplasma gondii ME49)
Km (O=c1[nH]cnc2nc[nH]c12): 1 µM and 0.79 ± 0.06 µM

B1: Tg244440 (Toxoplasma gondii ME49) (protein)
chain: MSTIEERAVAAQQMSKADDGKAPGMSRSDFVLAASFFLIAGVNSLIAWNVTLNLNPYFSTHCFSGNEWGNTLLAMFQLACMCIQIYLLKFGSGGAKKSYFFFAGIVNAITFTIFTPLVVYLPESAAVACMHICCFFLGIGSGVLQGGGFPYAASLPYNFCGFISTGQGLAAIIAFIWNTVFAFTLFDLDTRDGLVAMAWTSYGFAAVLSLVYFALFLVILKKPWAQGPFERQALEDVAAKEKAVQKAEAKKAEGDREAQYEQQDGNVFAVTAPTSIVDEESGVKVDGTEKRPARVFLRDAAPHLLNIGLTFFITLNNFPKIGPVGWNYNQQVNNHFIIMFGVFALGDVTGRFFPDLSQFSPKYFSWTMIPPKLVVPLCLLRSVFYVPFFLGYKLENTQVVNDFWFYVIIMLLFAFTQGWFCTLGFVYSMTSVRESERGVTGPLSVLCLSVGILAGLYLALAY
Km [8]: 1 µM
